Test results: PubChem BioAssay (NCI)
Values joined by “and” are separate entries in the source; they are usually repeats but may differ in a detail not shown here. Equal entries are not always repeated.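 Grown in 96-well plates, cells were treated for 48 hours with each compound at five concentrations. Insufficient inhibition: endpoint recorded as highest concentration tested. The concentration for 50% growth inhibition is given as GI50. TGI is the concentration that stops growth completely.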

Experiments:
Assay in all cases: DTP human tumour cell line panel, 48 h
OVCAR-3 ovarian = tested on: OVCAR-3 ovarian
HCC-2998 colon = tested on: HCC-2998 colon
CCRF-CEM leukemia = tested on: CCRF-CEM leukemia
U251 CNS = tested on: U251 CNS
A498 renal = tested on: A498 renal
KM20L2 colon = tested on: KM20L2 colon
XF 498 CNS = tested on: XF 498 CNS
COLO 205 colon = tested on: COLO 205 colon
SK-MEL-5 melanoma = tested on: SK-MEL-5 melanoma
MCF7 breast = tested on: MCF7 breast

SMILES	TGI (OVCAR-3 ovarian)	TGI (HCC-2998 colon)	TGI (CCRF-CEM leukemia)	TGI (U251 CNS)	TGI (A498 renal)	TGI (KM20L2 colon) [µM]	TGI (XF 498 CNS)	TGI (COLO 205 colon)	TGI (SK-MEL-5 melanoma)	GI50 (OVCAR-3 ovarian)	GI50 (HCC-2998 colon)	GI50 (CCRF-CEM leukemia)	GI50 (U251 CNS)	GI50 (A498 renal)	GI50 (KM20L2 colon) [nM]	GI50 (XF 498 CNS) [nM]	GI50 (COLO 205 colon)	GI50 (SK-MEL-5 melanoma)	GI50 (MCF7 breast)	TGI (MCF7 breast)
Cc1ccc(S(=O)(=O)c2ccccn2)cc1	> 100 µM	> 100 µM	> 100 µM	> 100 µM	> 100 µM	> 100	> 100 µM	> 100 µM	> 100 µM											
CC1CCCC2(O1)OC1CC(=O)OC1C1=C2C(=O)c2ccccc2C1=O (stereo not drawn)	10.5 µM	8.7 µM		32.5 µM	33.8 µM	16	8.42 µM	5.19 µM	4.14 µM											
C[N+](C)(C)CC(=O)N/N=C(\C(=O)Nc1ccc(Cl)cc1)C1C(=O)N(c2ccccc2)N=C1N (stereo not drawn)	> 100 µM	> 100 µM	> 100 µM	> 100 µM	> 100 µM	> 100		> 100 µM	> 100 µM											
Cc1nc2c(=O)n(C)c(=O)nc-2n(-c2ccc(Cl)cc2)c1C	> 100 µM	> 100 µM	> 100 µM	> 100 µM	> 100 µM	> 100	> 100 µM	> 100 µM	> 100 µM											
Cc1ccc(CCNC(=S)SCC(NC(=O)CCC(N)C(=O)O)C(=O)NCC(=O)O)cc1 (stereo not drawn)	5.27 µM	3.54 µM	2.18 µM	4.06 µM	6.25 µM	5.1	3.15 µM	6.63 µM	3.78 µM											
C[CH2][Ge]1([CH2]C)[CH2]CC2(CCN(CCCN(C)C)C2)C[CH2]1	4.99 µM and 6.87 µM	0.543 µM and 3.8 µM	2.33 µM and 2.44 µM	3.69 µM and 9.77 µM	3.26 µM and 1.68 µM	11	1.45 µM	1.12 µM and 1.77 µM	1.13 µM and 2.22 µM	2150 nM and 2810 nM	210 nM and 1680 nM	709 nM and 1400 nM	1.73 µM and 5.49 µM	1640 nM and 1050 nM	2940	1160	390 nM and 1290 nM	444 nM and 1440 nM	990 nM and 2420 nM	2.69 µM and 4.05 µM
COc1ccc(/C=C(\NC(=O)c2ccccc2)c2nc3ccccc3[nH]2)cc1	> 100 µM	> 100 µM	> 100 µM	> 100 µM	> 100 µM	> 100	46.2 µM	75.8 µM	29 µM											
COc1cc(C2C(C(=O)Nc3ccc(Cl)c(Cl)c3)=C(C)NC(C)=C2C(=O)Nc2ccc(Cl)c(Cl)c2)ccc1O	27.7 µM	23.5 µM	13.5 µM	34.7 µM	28.5 µM	54.7	33.1 µM	30.2 µM	25.5 µM											
O=C1c2ccccc2CC1C1(O)C(=O)Nc2c(Cl)cc(Cl)cc21 (stereo not drawn)	> 100 µM	> 100 µM	> 100 µM	> 100 µM		> 100	> 100 µM	> 100 µM	> 100 µM											
COC(=O)c1cc(CNCCc2c[nH]c3ccccc23)on1	> 100 µM	> 100 µM	> 100 µM	> 100 µM	> 100 µM	> 100	67.4 µM	> 100 µM	> 100 µM											> 100 µM
CCOc1ccccc1Nc1nc(C)c(C(=O)CC(=O)C(=O)Nc2ccccc2)s1	63.3 µM	> 100 µM	> 100 µM	> 100 µM	> 100 µM	> 100	> 100 µM	> 100 µM	> 100 µM											
COc1cccc2c1C(=N)c1c(O)c3c(c(O)c1C2=O)C[C@@](O)(C(C)=O)C[C@@H]3OC1CC(N)C(O)C(C)O1 (stereo partly drawn)	5.43 µM and 4.73 µM and 13 µM	2.48 µM and 3.14 µM and 0.541 µM	0.473 µM and 0.975 µM		3.06 µM and 6.52 µM and 1.88 µM		2.26 µM and 2.27 µM	2.29 µM and 4.36 µM and 2.42 µM	1.55 µM and 1.74 µM and 1.98 µM											24.8 µM and 13.4 µM
COc1ccc2nccc(C3OC(=O)N4CCC(=O)CC34)c2c1 (stereo not drawn)	> 100 µM		> 100 µM	> 100 µM	> 100 µM	> 100	> 100 µM	> 100 µM	> 100 µM											
Cc1cn2cc(-c3ccncc3)nc2s1	> 100 µM	> 100 µM	> 78.1 µM	> 100 µM	> 100 µM	> 100	> 100 µM	> 100 µM	> 100 µM											
O=C(N/N=C/c1cc(-c2ccccc2Cl)c(-c2ccccc2Cl)o1)c1ccncc1	> 100 µM				> 100 µM	> 100	> 100 µM	> 100 µM												
CC(=O)OC12CCCCC1C1(CCCC1)NC2=O (stereo not drawn)	> 100 µM	> 100 µM	> 100 µM	> 100 µM	> 100 µM	> 100	> 100 µM													
COc1cc(/C=C/C(=O)C(C)(C)C)cc(OC)c1OC	> 100 µM	> 100 µM	> 100 µM	> 100 µM		> 100	> 100 µM	> 100 µM	> 100 µM											
O=C1[C@@H]2C3C=CC([C@H]4C(=O)N(CO)C(=O)[C@@H]34)[C@@H]2C(=O)N1CO	> 100 µM	> 100 µM	59.3 µM	> 100 µM	> 100 µM	> 31.6	> 100 µM	> 77.8 µM	> 100 µM											
CCCCCC1C2C(=O)NC(=O)C1C(=O)NC2=O (stereo not drawn)	> 100 µM	> 100 µM	> 100 µM		> 100 µM	> 100	> 100 µM	> 100 µM	> 100 µM											
CC/C(=C(\c1ccccc1)c1ccc(OCC[N+](C)(C)C)cc1)c1ccccc1	20.3 µM	34.2 µM	26.1 µM	29.2 µM	40.6 µM	31.1		20.4 µM	16.4 µM											
